Experimental data as given in patent US10828315B2 (Madrigal Pharmaceuticals, Inc., priority 2013, dated 2020).

Tests used:
[1] = tested on: human breast cancer cell line BT-474; test: Cytotoxicity assay (CellTiter-Glo, 72 h), BT-474; type: cell-based; conditions: BT-474, 72 hours, read-out: Cytotoxicity (IC50, nM) BT-474
Protocol: Cytotoxicity of SDC-TRAP molecules was determined in three cancer cell lines. […] 80 μL of CellTiter-Glo was added to each well, followed by room temperature incubation in the dark for 15 minutes. Cell was determined by luminescence. IC50 was calculated using XLfit™ software.

[2] = Physical appearance of SDC-TRAP-0063 formulations and infusion solutions with different diluents and carbonate buffers; type: physicochemical; conditions: for Observations (physical appearance): 5% v/v DMSO
Protocol: First, a stock solution of SDC-TRAP-0063 was prepared in DMSO at 22 mg/mL, then the required amount of tween 80 was added and mixed well.
The above formulation containing SDC-TRAP-0063 was diluted using either D5W, D5W (pH 10.5, adjusted with 4.55 mM NaOH) or carbonate buffer, pH 10) (final drug concentration.: 1 mg/mL SDC-TRAP-0063, 1.8% v/v Tween 80, 5% v/v DMSO). The physical observations on these solutions were noted before and filtration through 0.22μ PES filter and were further observed for 3 hr. Refer to the table below for summary of observations. Note: Carbonate buffer, pH 10 was prepared by mixing 0.1M sodium carbonate (27.5 mL) and 0.1M sodium bicarbonate (22.5 mL) and qs 200 mL with DIW. The total Na content of carbonate buffer was 39 mM.
A stock solution of SDC-TRAP-0063 was prepared in either DMSO or PEG-300. To prepare formulations containing DMSO and tween 80, required amount of tween 80 added to the stock of DMSO (containing SDC-TRAP-0063). The formulations were then was diluted with carbonate buffer, pH 10 (composition: add and mix 0.1M sodium carbonate (27.5 mL) and 0.1M sodium bicarbonate (22.5 mL) and qs 200 mL with DIW). The samples (prepared in glass vial) were mixed well and observed for physical appearance while stirring on a magnetic stirring plate at ambient. (Note-appropriate amounts of SDC-TRAP-0063, tween 80, DMSO and PEG-300, as applicable were used to prepare the solutions at the desired concentrations and drug concentrations at 1 mg/mL through 5 mg/mL as shown).
Carbonate buffers of different pH (pH 9-10) and ionic strengths (with higher (>2) Na contents that SDC-TRAP-0063 on molar basis) were prepared and used for diluting the DMSO/tween 80 formulation loaded with SDC-TRAP-0063 (as described in earlier section 3). The final concentrations of DMSO and tween 80 in the diluted carbonate buffer were 5% v/v and 1.8% v/v respectively. The drug concentration was kept constant (5 mg/mL) for all diluted samples.

With `CCc1c2c(nc3ccc(OC(=O)N4CCC(CCn5ccc6cc(-n7c(O)nnc7-c7cc(C(C)C)c(O)cc7O)ccc65)CC4)cc13)-c1cc3c(c(=O)n1C2)COC(=O)[C@]3(O)CC` [SDC-TRAP-0063, 4,11-diethyl-4-hydroxy-3,14-dioxo-3,4,12,14-tetrahydro-1H-pyrano[3′,4′:6,7]indolizino[1,2-b]quinolin-9-yl 4-(2-(5-(3-(2,4-dihydroxy-5-isopropylphenyl)-5-hydroxy-4H-1,2,4-triazol-4-yl)-1H-indol-1-yl)ethyl)piperidine-1-carboxylate] the IC50 [1] was 320 nM, the “physical appearance of stock solution” value ([2]; 22 mg/mL in DMSO, and after addition of tween 80) was “clear and homogenous” and the “physical appearance after dilution with carbonate buffer, pH 10” value ([2]; 5% v/v DMSO + […] v/v tween 80, 1-5 mg/mL) was “clear at 2 hr of stirring”. For the same compound, the “Observations (physical appearance)” value ([2]; […] v/v Tween 80, carbonate buffer pH 10 (39 mM Na), 1 mg/mL, 30 min) was “Clear”, the “Observations (physical appearance)” value ([2]; […] v/v Tween 80, carbonate buffer pH 10 (39 mM Na), 1 mg/mL, 1 h) was “Clear” and the “Observations (physical appearance)” value ([2]; […] v/v Tween 80, carbonate buffer pH 10 (39 mM Na), 1 mg/mL, 2 h) was “Clear”. For the same compound, the “Observations (physical appearance)” value ([2]; […] v/v Tween 80, carbonate buffer pH 10 (39 mM Na), 1 mg/mL, Initial) was “Clear”, the “Observations (physical appearance)” value ([2]; […] v/v Tween 80, carbonate buffer pH 10 (39 mM Na), 1 mg/mL, Overnight) was “Clear” and the “Observations (physical appearance)” value ([2]; […] v/v Tween 80, carbonate buffer pH 10 (39 mM Na), 2 mg/mL, 30 min) was “Clear”. For the same compound, the “Observations (physical appearance)” value ([2]; […] v/v Tween 80, carbonate buffer pH 10 (39 mM Na), 2 mg/mL, 1 h) was “Clear”, the “Observations (physical appearance)” value ([2]; […] v/v Tween 80, carbonate buffer pH 10 (39 mM Na), 2 mg/mL, 2 h) was “Clear” and the “Observations (physical appearance)” value ([2]; […] v/v Tween 80, carbonate buffer pH 10 (39 mM Na), 2 mg/mL, Initial) was “Clear”. The “Observations (physical appearance)” value ([2]; […] v/v Tween 80, carbonate buffer pH 10 (39 mM Na), 2 mg/mL, Overnight) was “Clear”, the “Observations (physical appearance)” value ([2]; […] v/v Tween 80, carbonate buffer pH 10 (39 mM Na), 3 mg/mL, 30 min) was “Cloudy” and the “Observations (physical appearance)” value ([2]; […] v/v Tween 80, carbonate buffer pH 10 (39 mM Na), 3 mg/mL, 1 h) was “Clear”. The “Observations (physical appearance)” value ([2]; […] v/v Tween 80, carbonate buffer pH 10 (39 mM Na), 3 mg/mL, 2 h) was “Clear”, the “Observations (physical appearance)” value ([2]; […] v/v Tween 80, carbonate buffer pH 10 (39 mM Na), 3 mg/mL, Initial) was “Cloudy” and the “Observations (physical appearance)” value ([2]; […] v/v Tween 80, carbonate buffer pH 10 (39 mM Na), 3 mg/mL, Overnight) was “Clear”. The “Observations (physical appearance)” value ([2]; […] v/v Tween 80, carbonate buffer pH 10 (39 mM Na), 4 mg/mL, 30 min) was “Cloudy”, the “Observations (physical appearance)” value ([2]; […] v/v Tween 80, carbonate buffer pH 10 (39 mM Na), 4 mg/mL, 1 h) was “Cloudy” and the “Observations (physical appearance)” value ([2]; […] v/v Tween 80, carbonate buffer pH 10 (39 mM Na), 4 mg/mL, 2 h) was “Clear”. For the same compound, the “Observations (physical appearance)” value ([2]; […] v/v Tween 80, carbonate buffer pH 10 (39 mM Na), 4 mg/mL, Initial) was “Cloudy”, the “Observations (physical appearance)” value ([2]; […] v/v Tween 80, carbonate buffer pH 10 (39 mM Na), 4 mg/mL, Overnight) was “Clear” and the “Observations (physical appearance)” value ([2]; […] v/v Tween 80, carbonate buffer pH 10 (39 mM Na), 5 mg/mL, 30 min) was “Cloudy”. For the same compound, the “Observations (physical appearance)” value ([2]; […] v/v Tween 80, carbonate buffer pH 10 (39 mM Na), 5 mg/mL, 1 h) was “Cloudy”, the “Observations (physical appearance)” value ([2]; […] v/v Tween 80, carbonate buffer pH 10 (39 mM Na), 5 mg/mL, 2 h) was “Clear” and the “Observations (physical appearance)” value ([2]; […] v/v Tween 80, carbonate buffer pH 10 (39 mM Na), 5 mg/mL, Initial) was “Cloudy”. The “Observations (physical appearance)” value ([2]; […] v/v Tween 80, carbonate buffer pH 10 (39 mM Na), 5 mg/mL, Overnight) was “Clear”, the “Observations (physical appearance)” value ([2]; […] v/v Tween 80, 5 mg/mL, Carbonate buffer, pH 9.2 (25 mM Na), 1 h) was “Cloudy” and the “Observations (physical appearance)” value ([2]; […] v/v Tween 80, 5 mg/mL, Carbonate buffer, pH 9.2 (25 mM Na), 2 h) was “Cloudy”. The “Observations (physical appearance)” value ([2]; […] v/v Tween 80, 5 mg/mL, Carbonate buffer, pH 9.2 (25 mM Na), 3 h) was “Cloudy”, the “Observations (physical appearance)” value ([2]; […] v/v Tween 80, 5 mg/mL, Carbonate buffer, pH 9.2 (25 mM Na), Initial) was “Cloudy” and the “Observations (physical appearance)” value ([2]; […] v/v Tween 80, 5 mg/mL, Carbonate buffer, pH 9.2 (25 mM Na), Overnight) was “Cloudy”. For the same compound, the “Observations (physical appearance)” value ([2]; […] v/v Tween 80, 5 mg/mL, Carbonate buffer, pH 9.5 (26.5 mM Na), 1 h) was “Cloudy”, the “Observations (physical appearance)” value ([2]; […] v/v Tween 80, 5 mg/mL, Carbonate buffer, pH 9.5 (26.5 mM Na), 2 h) was “Cloudy” and the “Observations (physical appearance)” value ([2]; […] v/v Tween 80, 5 mg/mL, Carbonate buffer, pH 9.5 (26.5 mM Na), 3 h) was “Cloudy”. For the same compound, the “Observations (physical appearance)” value ([2]; […] v/v Tween 80, 5 mg/mL, Carbonate buffer, pH 9.5 (26.5 mM Na), Initial) was “Cloudy”, the “Observations (physical appearance)” value ([2]; […] v/v Tween 80, 5 mg/mL, Carbonate buffer, pH 9.5 (26.5 mM Na), Overnight) was “Cloudy” and the “Observations (physical appearance)” value ([2]; […] v/v Tween 80, 5 mg/mL, Carbonate buffer, pH 9.5 ([…] Na), 1 h) was “Cloudy”. For the same compound, the “Observations (physical appearance)” value ([2]; […] v/v Tween 80, 5 mg/mL, Carbonate buffer, pH 9.5 ([…] Na), 2 h) was “Cloudy”, the “Observations (physical appearance)” value ([2]; […] v/v Tween 80, 5 mg/mL, Carbonate buffer, pH 9.5 ([…] Na), 3 h) was “Clear” and the “Observations (physical appearance)” value ([2]; […] v/v Tween 80, 5 mg/mL, Carbonate buffer, pH 9.5 ([…] Na), Initial) was “Cloudy”. For the same compound, the “Observations (physical appearance)” value ([2]; […] v/v Tween 80, 5 mg/mL, Carbonate buffer, pH 9.5 ([…] Na), Overnight) was “Clear”, the “Observations (physical appearance)” value ([2]; […] v/v Tween 80, 5 mg/mL, Carbonate buffer, pH 10 (39 mM Na), 1 h) was “Cloudy” and the “Observations (physical appearance)” value ([2]; […] v/v Tween 80, 5 mg/mL, Carbonate buffer, pH 10 (39 mM Na), 2 h) was “Clear yellow”. The “Observations (physical appearance)” value ([2]; […] v/v Tween 80, 5 mg/mL, Carbonate buffer, pH 10 (39 mM Na), 3 h) was “Clear yellow”, the “Observations (physical appearance)” value ([2]; […] v/v Tween 80, 5 mg/mL, Carbonate buffer, pH 10 (39 mM Na), Initial) was “Cloudy” and the “Observations (physical appearance)” value ([2]; […] v/v Tween 80, 5 mg/mL, Carbonate buffer, pH 10 (39 mM Na), Overnight) was “Clear yellow”. The “Observations (physical appearance)” value ([2]; […] v/v Tween 80, 5 mg/mL, Carbonate buffer, pH 10 (155 mM Na), 1 h) was “Clear”, the “Observations (physical appearance)” value ([2]; […] v/v Tween 80, 5 mg/mL, Carbonate buffer, pH 10 (155 mM Na), 2 h) was “Clear yellow” and the “Observations (physical appearance)” value ([2]; […] v/v Tween 80, 5 mg/mL, Carbonate buffer, pH 10 (155 mM Na), 3 h) was “Clear yellow”. The “Observations (physical appearance)” value ([2]; […] v/v Tween 80, 5 mg/mL, Carbonate buffer, pH 10 (155 mM Na), Initial) was “Cloudy”, the “Observations (physical appearance)” value ([2]; […] v/v Tween 80, 5 mg/mL, Carbonate buffer, pH 10 (155 mM Na), Overnight) was “Clear yellow” and the “Observations (physical appearance)” value ([2]; carbonate buffer pH 10 (39 mM Na), 1 mg/mL, 30 min) was “Cloudy”. For the same compound, the “Observations (physical appearance)” value ([2]; carbonate buffer pH 10 (39 mM Na), 1 mg/mL, 1 h) was “Cloudy”, the “Observations (physical appearance)” value ([2]; carbonate buffer pH 10 (39 mM Na), 1 mg/mL, 6 h) was “Cloudy” and the “Observations (physical appearance)” value ([2]; carbonate buffer pH 10 (39 mM Na), 1 mg/mL, Initial) was “Cloudy”. The “Observations (physical appearance)” value ([2]; carbonate buffer pH 10 (39 mM Na), 1 mg/mL, Overnight) was “Clear yellow solution”.
